Measured values published in patent EP2808337A1, “(E)-3-Aryl-3-oxoprop-1-enyl-2-phosphonic acid and its derivatives, methods for their preparation and their use” (Centrum Badan Molekularnych I Makromolekularnych Pan, priority 2013, dated 2014).

Legend:
[1] = test system: DNA plasmid pcDNA 3.1 HisC (8.2 kb); test: Digestion of plasmid DNA with restriction enzyme Bam H1 after incubation with compounds (agarose gel electrophoresis); assay type: biochemical; conditions: compound 2 or 20 µM, overnight at 37°C with 0.6 µg plasmid, then BamH1 2U/sample for 3 hours at 37°C; gel not shown
Experimental: The impact of compounds 1a and 1b has been tested on the digestion of DNA plasmid pcDNA 3.1 HisC (8.2 kb) with restriction enzyme Bam H1.
1. For this purpose, pcDNA 3.1 HisC plasmid DNA (0.6 µg) was dissolved in 1×BamH1 buffer and incubated overnight at 37°C with the following reference or test compounds:
The concentration of the reference and test compounds in each sample was 2 or 20 µM.
2. After overnight incubation, the reaction mixture was digested with BamH1 restriction enzyme (2U/sample) for 3 hours at 37°C. The total volume of the samples was 10 µL.
3. The reaction products were applied on 1% agarose gel and electrophoresis was performed in TAE buffer.

[2] = test system: synthetic DNA duplex (23 nt- 5'TCTTCAAGAATTCAGGTCCTGAT 3'); test: Circular dichroism (CD) spectra of synthetic DNA duplex with test compounds; assay type: binding; conditions: immediately after addition; DNA duplex 2µM, compound 20µM, DMSO 0.2%, PBS, 23°C, 200-320 nm; Figure 1
Experimental: The ability of the test compounds 1a and 1b to interact with DNA was tested by the circular dichroism (CD) technique.
1. For this purpose, samples were prepared in PBS buffer containing: […] of synthetic DNA duplex (23 nt- 5'TCTTCAAGAATTCAGGTCCTGAT 3') or DNA of bovine thymus (0.2 mg/ml) and test compounds at a concentration of 20µM or 40µM for synthetic DNA duplex sample and thymus DNA sample, respectively. The samples contained 0.2% or 0.4% DMSO (for synthetic DNA duplex sample and thymus DNA sample, respectively), which is a solvent of the test compounds.
2. CD spectra (in the range from 200 nm to 320 nm) were recorded immediately after addition of the test compounds as well as after 1.5 h incubation. The measurement was carried out at 23°C in a quartz cuvette (optical path length 0.5 cm) using a spectroscope CD6 (Jobin-Yvon, France).
3. CD spectra of DNA incubated with the test compounds were compared with the control spectrum (spectrum was recorded for a sample of DNA (2µM or 0.2 mg/ml) in the presence of DMSO (final concentration of 0.2% or 0.4%).

| SMILES | interaction with plasmid DNA: resistance to digestion by the endonucleolytic enzyme Bam H1 [1] | changes of CD spectrum of duplex DNA compared to control (duplex DNA + DMSO) [2] |
| --- | --- | --- |
| COc1cccc2c1C(=O)c1c(O)c3c(c(O)c1C2=O)C[C@@](O)(C(C)=O)C[C@@H]3O[C@H]1C[C@H](N)[C@H](O)[C@H](C)O1 [Daunorubicin, reference compound] | increasing its resistance to digestion | changing significantly its structure |
| COP(=O)(OC)/C(=C/c1ccc2ccc3cccc4ccc1c2c34)C(=O)c1ccc2c(c1)OCO2 [compound 1a] | increasing its resistance to digestion | changes compared to the control sample |
| O=C(/C(=C/c1ccc2ccc3cccc4ccc1c2c34)P(=O)(O)O)c1ccc2c(c1)OCO2 [compound 1b, (Z)-3-(benzo[d][1,3]dioxol-5-yl)-1-(pyrene-1-yl)-3-oxoprop-1-en-2-ylphosphonic acid] | increasing its resistance to digestion | changes compared to the control sample |
